How the values were obtained:
MAO-A = tested on: MAO-A; design: method as in PMID 16356714, PMID 20708306, PMID 19043245, PMID 25707011, PMID 25922182; conditions: lead structure of Chart 1, earlier series of the group ref 21–25; cited from earlier work
[1] = substrate: COc1cc(/C=N/NC(=O)CNC(=O)c2cc(Cl)ccc2/N=C/c2ccccc2)ccc1O; assay: Oxidation of compound by MAO-A in the standard coupled assay in the absence of tyramine; assay type: biochemical, human; conditions: other: compound as substrate
Method: Compound 6 in the screening assay with 10 µM inhibitor gave an increased rate of appearance of fluorescence indicating faster production of the product H2O2 (not the slower rate observed with other compounds that inhibit MAO activity).
Figure 3. Oxidation of 6 (squares) but not 12d (triangles) by MAO-A. The concentration of compound was varied in the standard assay coupled to the production of H2O2 but in the absence of the substrate tyramine.
The activity of MAO was determined using the coupled assay method of [41, 42] in which the product, H2O2, acts with horseradish peroxidase to convert 10-acetyl-3,7-dihydroxyphenoxazine to the fluorescent resorufin. […] For compounds that gave more than 30% inhibition, the IC50 was determined using seven concentrations of each compound (0.01–300 μM) with substrate at 2 × KM. […] The data were analysed using the equation for a three-parameter curve in Graphpad PRISM v. 4, and the % inhibition calculated from the top and bottom of the resulting curve.

| Molecule | MAO-A activity PIC50 (MAO-A) | Km [1] [µM] |
| --- | --- | --- |
| C/C(=N/NC(=O)Cn1c(=O)c(Cc2ccccc2)nc2ccccc21)c1ccc(O)cc1 [lead structure] | 7.8 | – |
| MAO-A (Homo sapiens) (protein) MENQEKASIAGHMFDVVVIGGGISGLSAAKLLTEYGVSVLVLEARDRVGGRTYTIRNEHVDYVDVGGAYVGPTQNRILRLSKELGIETYKVNVSERLVQYVKGKTYPFRGAFPPVWNPIAYLDYNNLWRTIDNMGKEIPTDAPWEAQHADKWDKMTMKELIDKICWTKTARRFAYLFVNINVTSEPHEVSALWFLWYVKQCGGTTRIFSVTNGGQERKFVGGSGQVSERIMDLLGDQVKLNHPVTHVDQSSDNIIIETLNHEHYECKYVINAIPPTLTAKIHFRPELPAERNQLIQRLPMGAVIKCMMYYKEAFWKKKDYCGCMIIEDEDAPISITLDDTKPDGSLPAIMGFILARKADRLAKLHKEIRKKKICELYAKVLGSQEALHPVHYEEKNWCEEQYSGGCYTAYFPPGIMTQYGRVIRQPVGRIFFAGTETATKWSGYMEGAVEAGERAAREVLNGLGKVTEKDIWVQEPESKDVPAVEITHTFWERNLPSVSGLLKIIGFSTSVTALGFVLYKYKLLPRS | – | 35.5 |

From PMC7211837, “Design, synthesis, molecular modelling and in vitro screening of monoamine oxidase inhibitory activities of novel quinazolyl hydrazine derivatives” (Royal Society Open Science, 2020)
